Series [1] concerns H. influenzae HI-3542. Description: Antibacterial assay (standard microtitration), MIC. Type of series: cell-based. Conditions: Gram Negative Bacteria, Table 1A; for MIC: Haemophilus influenzae, HI3542, read-out: Minimum Inhibitory Concentrations, H. influenzae HI-3542. The method, then:
(§1) Test A—Antibacterial Assays
(§2) The compounds of the present invention were tested against an assortment of Gram-negative and Gram-positive organisms using standard microtitration techniques (Cohen et. al., Antimicrob., 1985;28:766; Heifetz, et. al., Antimicrob., 1974;6:124). The results of the evaluation are shown in Tables 1A and B. In the tables, “—” means no data.

The subject of series [2] is E. coli MC4100. Description: Antibacterial assay (standard microtitration), MIC. It counts as cell-based. Conditions: Gram Negative Bacteria, Table 1A; for MIC: Escherichia coli, MC4100, read-out: Minimum Inhibitory Concentrations, E. coli MC4100. The protocol:
as §1, §2

Series [3] relates to M. catarrhalis BC-3531. Description: Antibacterial assay (standard microtitration), MIC. It counts as cell-based. Conditions: Moraxella catarrhalis, BC3531; Gram Negative Bacteria; Table 1A; read-out: Minimum Inhibitory Concentrations, M. catarrhalis BC-3531. The method, then:
as §1, §2

The test system of series [4] is E. faecalis MGH-2. The series is described as follows: Antibacterial assay (standard microtitration), MIC. It counts as cell-based. Conditions: Gram Positive Bacteria, Table 1B; for MIC: Enterococcus faecalis, MGH2, read-out: Minimum Inhibitory Concentrations, E. faecalis MGH-2. The method, then: as §1, §2
For series [5], the system named is S. aureus UC-76. The series is described as follows: Antibacterial assay (standard microtitration), MIC. Type of series: cell-based. The following applies: Table 1B; for Minimum Inhibitory Concentrations, S. aureus UC-76: Gram Positive Bacteria; for MIC: Staphylococcus aureus, UC76, Gram Positive Bacteria, read-out: Minimum Inhibitory Concentrations, S. aureus UC-76. The protocol: as §1, §2

Series [6] has as its system S pyogenes C203. Description: Antibacterial assay (standard microtitration), MIC. It counts as cell-based. The following applies: Gram Positive Bacteria, Table 1B; for MIC: read-out: Minimum Inhibitory Concentrations, S pyogenes C203. The protocol:
as §1, §2

In brackets after ≈: the same amount, converted by molar mass.

As to `COc1c(N2CCCC(C(O)CO)C2)c(F)cc2c(=O)c(C(=O)O)cn(C3CC3)c12` (stereo not shown) [drawing 334], the MIC in series [1] was found to be 0.125 µg/mL (≈ 0.297 µM); in series [2], 1 µg/mL (≈ 2.38 µM); in series [3] it was 0.25 µg/mL (≈ 0.595 µM).
As for `COc1c(N2CCC(O)C(C)C2)c(F)cc2c(=O)c(C(=O)O)cn(C3CC3)c12` (stereo not shown) [drawing 356], the “Minimum Inhibitory Concentrations, E. faecalis MGH-2” value in series [4] worked out at 0.125 µg/mL. Besides, in series [5], the “Minimum Inhibitory Concentrations, S. aureus UC-76” value amounted to 0.0008 µg/mL. In addition, in series [6], the “Minimum Inhibitory Concentrations, S pyogenes C203” value was 0.25 µg/mL.
Consider `Cc1c(N2CCC(O)C(CO)C2)c(F)cc2c(=O)c(C(=O)O)cn(C3CC3)c12` (stereo not shown), for which the MIC in series [4] came to 0.25 µg/mL (≈ 0.64 µM); in series [5], 0.015 µg/mL (≈ 0.0384 µM); in series [6] it was 0.25 µg/mL (≈ 0.64 µM).
Consider `COc1c(N2CCC(O)C(CO)C2)c(F)cc2c(=O)c(C(=O)O)cn(C3CC3)c12` (stereo not shown) [drawing 324], for which the values for the MIC in series [1], in series [2] and in series [3] were 0.015 µg/mL (≈ 0.0369 µM), 0.25 µg/mL (≈ 0.615 µM) and 0.125 µg/mL (≈ 0.308 µM), respectively.
Take `Cc1c(N2CCC(CCO)CC2)c(F)cc2c(=O)c(C(=O)O)cn(C3CC3)c12` [drawing 345]: the MIC is 0.03 µg/mL (≈ 0.0772 µM) in series [4], 0.004 µg/mL (≈ 0.0103 µM) in series [5] and 0.06 µg/mL (≈ 0.154 µM) in series [6].
Turning to `COc1c(N2CCC(O)(c3ccccc3)CC2)c(F)cc2c(=O)c(C(=O)O)cn(C3CC3)c12` [drawing 352], the MIC turned out to be 32 µg/mL (≈ 70.7 µM) in series [4], 0.25 µg/mL (≈ 0.553 µM) in series [5] and 2 µg/mL (≈ 4.42 µM) in series [6].
In the case of `COc1c(N2CCC(O)C(C)C2)c(F)cc2c(=O)c(C(=O)O)cn(C3CC3)c12` (stereo not shown) [drawing 351], the values for the MIC in series [4] and in series [6] were 0.125 µg/mL (≈ 0.32 µM) and 0.25 µg/mL (≈ 0.64 µM), respectively. Further, in series [5], the “Minimum Inhibitory Concentrations, S. aureus UC-76” value was determined as 0.008 µg/mL.
For `COc1c(N2CCCC(O)(CO)C2)c(F)cc2c(=O)c(C(=O)O)cn(C3CC3)c12` (stereo not shown) [drawing 355], the MIC in series [4] was found to be 1 µg/mL (≈ 2.46 µM); in series [5], 0.06 µg/mL (≈ 0.148 µM); in series [6] it was 2 µg/mL (≈ 4.92 µM).
The term melting point denotes the temperature of the solid-liquid transition. As to `COc1c(N2CCC(O)(CO)CC2)c(F)cc2c(=O)c(C(=O)O)cn(C3CC3)c12`, the melting point is 200 to 210 °C (dec.).
Turning to `COc1c(N2CCC(CCO)CC2)c(F)cc2c(=O)c(C(=O)O)cn(C3CC3)c12`, the figures for the MIC in series [4], in series [5] and in series [6] were 0.125 µg/mL (≈ 0.309 µM), 0.015 µg/mL (≈ 0.0371 µM) and 0.25 µg/mL (≈ 0.618 µM), respectively.
Turning to `Cc1c(N2CCC(CCO)CC2)c(F)cc2c(=O)c(C(=O)O)cn(C3CC3)c12` [drawing 326], the MIC in series [1] came to 0.03 µg/mL (≈ 0.0772 µM); in series [2], 0.06 µg/mL (≈ 0.154 µM); in series [3], 0.015 µg/mL (≈ 0.0386 µM).
In the case of `COc1c(N2CCC(O)C(C)C2)c(F)cc2c(=O)c(C(=O)O)cn(C3CC3)c12` (stereo not shown) [drawing 332], the MIC in series [1] came out at 0.03 µg/mL (≈ 0.0768 µM); in series [2] it was 0.25 µg/mL (≈ 0.64 µM); in series [3], 0.03 µg/mL (≈ 0.0768 µM).
Take `COc1c(N2CCC(O)(CO)CC2)c(F)cc2c(=O)c(C(=O)O)cn(C3CC3)c12` [drawing 328]: the results for the MIC in series [1], in series [2] and in series [3] were 0.015 µg/mL (≈ 0.0369 µM), 0.25 µg/mL (≈ 0.615 µM) and 0.125 µg/mL (≈ 0.308 µM), respectively.
Take `Cc1c(N2CCCC(O)C2)c(F)cc2c(=O)c(C(=O)O)cn(C3CC3)c12` (stereo not shown) [drawing 359]: the MIC in series [4] is 0.125 µg/mL (≈ 0.347 µM); in series [5], 0.015 µg/mL (≈ 0.0416 µM); in series [6], 0.125 µg/mL (≈ 0.347 µM).
For `COc1c(N2CCC(O)C(C)C2)c(F)cc2c(=O)c(C(=O)O)cn(C3CC3)c12` (stereo not shown) [drawing 337], the “Minimum Inhibitory Concentrations, H. influenzae HI-3542” value in series [1] turned out to be 0.03 µg/mL. Also, the “Minimum Inhibitory Concentrations, E. coli MC4100” value in series [2] came to 0.25 µg/mL.
Consider `COc1c(N2CCC(O)C(C)(C)C2)c(F)cc2c(=O)c(C(=O)O)cn(C3CC3)c12` (stereo not shown) [drawing 350], for which the MIC in series [4] was found to be 0.25 µg/mL (≈ 0.618 µM); in series [5], 0.015 µg/mL (≈ 0.0371 µM); in series [6], 0.5 µg/mL (≈ 1.24 µM).
Turning to `Cc1c(N2CCC(O)C(C)(C)C2)c(F)cc2c(=O)c(C(=O)O)cn(C3CC3)c12` (stereo not shown) [drawing 330], the MIC in series [1] was 0.125 µg/mL (≈ 0.322 µM); in series [2] it was 2 µg/mL (≈ 5.15 µM); in series [3], 0.5 µg/mL (≈ 1.29 µM).
Turning to `Cc1c(N2CCCC(O)C2)c(F)cc2c(=O)c(C(=O)O)cn(C3CC3)c12` (stereo not shown) [drawing 340], the MIC turned out to be 0.015 µg/mL (≈ 0.0416 µM) in series [1], 0.125 µg/mL (≈ 0.347 µM) in series [2] and 0.03 µg/mL (≈ 0.0832 µM) in series [3].
On to `COc1c(N2CCC(O)C(CO)C2)c(F)cc2c(=O)c(C(=O)O)cn(C3CC3)c12` (stereo not shown), for which the melting point is 115 to 125 °C.
For `COc1c(N2CCCC(O)C2)c(F)cc2c(=O)c(C(=O)O)cn(C3CC3)c12` (stereo not shown) [drawing 358], the MIC came to 0.002 µg/mL (≈ 0.00531 µM) in series [4], 0.03 µg/mL (≈ 0.0797 µM) in series [5] and 0.125 µg/mL (≈ 0.332 µM) in series [6].

These data come from patent US20050096278A1, “Antibacterial agents” (priority 2003, published 2005).
